B1: G-CSF: Neupogen (Filgrastim; Granulocyte colony-stimulating factor; G-CSF), positive control article, Amgen (protein, UniProt P09919 31-207, looked up)
Granulocyte …: TPLGPASSLPQSFLLKCLEQVRKIQGDGAALQEKLVSECATYKLCHPEELVLLGHSLGIPWAPLSSCPSQALQLAGCLSQLHSGLFLYQGLLQALEGISPELGPTLDTLQLDVADFATTIWQQMEELGMAPALQPTQGAMPAFASAFQRRAGGVLVASHLQSFLEVSYRVLRHLAQP
modifications: filgrastim
notes: Neupogen (Filgrastim; Granulocyte colony-stimulating factor; G-CSF), positive control article, Amgen

Legend:
[1] = test system: C57BL/6 mice; test: ARS scoring (posture, coat, behavior) after whole-body irradiation; assay type: in vivo; set-up: key to Supporting variable: ARS scores (trend): positive trend (descriptively) +; negative trend (descriptively) −; no difference (descriptively) 0
Description: Scores on a scale of 1 to 4 (minimal, mild, moderate and severe) for posture, coat, and behavior were recorded twice daily per SNBL SOP, beginning on Day −3, except on the day of scheduled necropsy when scoring occurred only once. Observations were performed by 5 individuals during the course of the study.
After Day 0, the first ARS scoring began in the morning and the second ARS scoring began 4 to 6 hours following the completion of the morning ARS scoring. On the day of scheduled necropsy, ARS scoring occurred in the morning, prior to necropsy.
Based on the ARS Scoring SNBL SOP, if the sum of the three parameter scores totaled 8 or higher, the animal was considered moribund and was euthanized with an unscheduled necropsy performed according to the moribund animal SOP.

[2] = test system: C57BL/6 mice; test: Gross pathology and histopathology (testes degeneration, bone marrow cellularity) after whole-body irradiation; assay type: in vivo; set-up: key to Supporting variable: Testes degradation (trend): positive trend (descriptively) +; negative trend (descriptively) −; no difference (descriptively) 0; conditions: for severity of testes degradation compared to Group 2: Day 14
Text: (§1) FIG. 13 Testes. (A): Percentage of severity of testes degeneration according to four categories (minimal, mild, moderate and marked) in group 2 (VL (POx1); 2), group 3 (ML (IPx2); 3), group 4 (ML (POx2); 4) and group 5 (ML (POx1); 5). (B): Percentage of severity of testes degeneration according to four categories (minimal, mild, moderate and marked) in group 2 (VL (POx1);2), 6 (GL (SCx1); 6) and 7 (M/GL (PO/SCx1); 7). (C): Percentage of severity of testes degeneration according to four categories (minimal, mild, moderate and marked) in group 8 (VH (POx1); 8 and 9 (MH (POx1); 9).
as §1, with “14 Bone marrow cellularity.” for “13 Testes.”, “bone marrow cellularity decrease” for “severity of testes degeneration”

[3] = Group 3 ML (IPx2): 25 mg/kg IP, Day −3 to 0 (6x), prophylactic, 5.8 Gy
[4] = Group 5 ML (POx1): 50 mg/kg per os SID Day −2, −1, 0, prophylactic, 5.8 Gy
[5] = Group 9 MH (POx1): 50 mg/kg per os SID Day 1, 2, 3, therapeutic, 6.0 Gy
[6] = Group 4 ML (POx2): 25 mg/kg per os, Day −3 to 0 (6x), prophylactic, 5.8 Gy

Molecule	frequency of normal posture score in comparison with control group ([1]; Day 15, Group 3 ML (IPx2): 25 mg/kg IP, Day −3 to 0 (6x), prophylactic, 5.8 Gy)	ARS posture score, most frequent grade (mode) ([1]; Day 15, Group 4 ML (POx2): 25 mg/kg per os, Day −3 to 0 (6x), prophylactic, 5.8 Gy, control group 2 mild)	ARS posture score, most frequent grade (mode) ([1]; Day 15, Group 5 ML (POx1): 50 mg/kg per os SID Day −2, −1, 0, prophylactic, 5.8 Gy, control group 2 mild)	ARS coat grade ([1]; Day 21, Group 9 MH (POx1): 50 mg/kg per os SID Day 1, 2, 3, therapeutic, 6.0 Gy, control Group 8 mild (20%) and moderate (27%))	frequency of normal posture score in comparison to control group 8 ([1]; Day 30, Group 9 MH (POx1): 50 mg/kg per os SID Day 1, 2, 3, therapeutic, 6.0 Gy)	Supporting variable: ARS scores (trend) [1, 3]	Supporting variable: ARS scores (trend) [1, 4]	Supporting variable: ARS scores (trend) [1, 5]	severity of testes degradation compared to Group 2 [2, 3]	severity of testes degradation compared to Group 2 [2, 6]	severity of testes degradation compared to Group 2 [2, 4]	Supporting variable: Testes degradation (trend) [2, 6]	Supporting variable: Testes degradation (trend) [2, 4]	Supporting variable: Testes degradation (trend) [2, 5]	ARS scoring for coat ([1]; Day 9, Group 6 GL (SCx1): 0.34 mg/kg SC SID Day 1, 2, 3, therapeutic, 5.8 Gy)	ARS posture score, most frequent grade (mode) ([1]; Day 15, Group 6 GL (SCx1): 0.34 mg/kg SC SID Day 1, 2, 3, therapeutic, 5.8 Gy, control group 2 mild (65%))	Supporting variable: ARS scores (trend) ([1]; Group 6 GL (SCx1): 0.34 mg/kg SC SID Day 1, 2, 3, therapeutic, 5.8 Gy)	testes degeneration, proportion by severity category ([2]; Day 14, insignificant (p=0.078), Group 6 GL (SCx1): 0.34 mg/kg SC SID Day 1, 2, 3, therapeutic, 5.8 Gy)
O=C(O)CCCC(=O)NCCc1c[nH]cn1 [Myelo001, 5-{[2-(1H-imidazol-4-yl)ethyl]amino}-5-oxo-pentanoic acid]	did not result in such changes	normal	normal	mostly normal	trend for the increased frequency of normal posture score	−	+	+	reduced	reduced	reduced	+	+	+				
B1															increased percentage of mild grade	normal	+	higher proportions of testes in the minimal category
